Reference: paper PMC4459817, “Vasculotide reduces endothelial permeability and tumor cell extravasation in the absence of binding to or agonistic activation of Tie2” (EMBO Molecular Medicine, 2015)
“Also recorded” adds a separate entry of the source.

Tests used:
[1] = target: T1, mouse Tie2-Fc (mTie2-Fc) (Mus musculus, UniProt Q02858); assay: SPR binding to mouse Tie2-Fc; details: mouse Tie2-Fc (low- and high-density), 37°C, pH 7.4, Supplementary Fig S3
T1 construct: Purified human or mouse Tie2-Fc (i.e., Fc-conjugated extracellular domains of Tie2); purchased R&D Systems 762-T2-100
T1 sequence (Q02858 23-746 limits assumed): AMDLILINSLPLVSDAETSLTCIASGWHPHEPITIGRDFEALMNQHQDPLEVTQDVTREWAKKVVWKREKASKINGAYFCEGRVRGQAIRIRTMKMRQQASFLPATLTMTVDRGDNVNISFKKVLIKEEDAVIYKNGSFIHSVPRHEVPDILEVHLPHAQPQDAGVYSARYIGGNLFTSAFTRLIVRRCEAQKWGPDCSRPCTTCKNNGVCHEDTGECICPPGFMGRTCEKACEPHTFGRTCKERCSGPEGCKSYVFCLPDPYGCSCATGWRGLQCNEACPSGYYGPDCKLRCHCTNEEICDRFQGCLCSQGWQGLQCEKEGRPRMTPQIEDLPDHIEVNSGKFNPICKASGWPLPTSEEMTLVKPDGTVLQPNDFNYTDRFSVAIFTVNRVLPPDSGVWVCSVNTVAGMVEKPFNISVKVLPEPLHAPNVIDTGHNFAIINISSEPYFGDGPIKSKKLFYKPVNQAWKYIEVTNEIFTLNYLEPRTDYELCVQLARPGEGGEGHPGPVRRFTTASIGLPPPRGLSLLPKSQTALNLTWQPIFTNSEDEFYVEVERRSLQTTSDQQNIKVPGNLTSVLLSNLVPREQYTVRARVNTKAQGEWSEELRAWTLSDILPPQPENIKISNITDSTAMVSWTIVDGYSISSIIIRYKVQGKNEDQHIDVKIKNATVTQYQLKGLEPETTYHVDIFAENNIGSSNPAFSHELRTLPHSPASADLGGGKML
Excerpt: To better understand the difficulties we had in observing Tie2 activation by VT, we sought to characterize the binding affinity and kinetics of VT to Tie2. Purified human or mouse Tie2-Fc (i.e., Fc-conjugated extracellular domains of Tie2) were first coupled to protein A sepharose beads for pull-down experiments (Fig9A and B) or immobilized on a Biacore CM5 sensor chip for surface plasmon resonance (SPR) experiments (Fig9C and Supplementary Fig S3). […]
9. Tie2 Receptor-Binding Assays
Vasculotide (VT) was manufactured by Bachem UK Ltd. T7c (CHHHRHSF) was synthesized by Genscript (Piscataway, NJ, USA). PEG-Cys consists of a single cysteine reacted to each of the 4 arms of PEG-maleimide (Sunbright PTE-100MA, NOF Corporation, Tokyo, Japan). BowAng1 (Ang1-Fd-Fc-Fd) was made and provided by Regeneron Pharmaceuticals, Inc. (Tarrytown, NY, USA). COMP-Ang1 was purified in the Kerbel lab from serum-free culture media conditioned by an engineered CHO cell line provided by Dr. Gou Young Koh (KAIST), according to published protocols (Hwang et al, 2008).
Recombinant human Angiopoietin-1 (rhAng1) and Vascular Endothelial Growth Factor ( rhVEGF) were […]
purchased from R&D Systems. […]
(structural/molecular weight control for VT), and 40 μL of supernatant (7% of residual/unbound ligand) – were similarly boiled in SDS sample buffer. […]
Binding analysis were performed by exposure of immobilized mTie2-Fc to the analytes diluted in HBS-EP (0.01M HEPES pH 7.4, 0.15M NaCl, 3mM EDTA, 0.005% v/v Tween-20), which was supplemented with 1mg/mL carboxymethyl dextran (NSB reducer, GE Healthcare) to reduce non-specific binding to the sensor chip. […] To quantitatively determine the kinetic properties of the interaction (KD, kd, ka) and avoid mass transport limitations, mTie2-Fc and hTie2-Fc were immobilized at low density (1,000-1,200RU) onto separate flow cells of the CM5 chip using amine coupling chemistry. […] All data were analysed using BIA Evaluation Software 2.0 (GE Healthcare) to calculate kd, ka and KD using the 1:1 ligand binding model. […]

[2] = test system: human microvascular ECs of dermal blood vessel origin (HMVEC-DBl); assay: modified Boyden chamber, thrombin-stimulated FITC-dextran permeability, HMVEC-DBl; format: cell-based; details: HMVEC-DBl; structural control alone; Fig1D
Protocol: ECs were first treated with Vasculotide (VT), PBS (vehicle/negative control), Ang1 (positive control), PEG-Cys (polyethylene glycol backbone), T7c (non-PEGylated CHHHRHSF peptides), or VT in the presence of 100-fold molar excess of T7c. The concentrations used, 10–20 ng/mL VT and 200–400 ng/mL Ang1, are estimated molar equivalents (0.71–1.43 nM). Thirty minutes later, ECs were stimulated with thrombin, 0.1% BSA (vehicle/negative control), or EDTA (positive control). Another 30mins later, the amount of FITC-dextran diffusion into the lower chambers (A, D) provides a measure of endothelial permeability. CMTPX-labeled tumor cells (TCs) were then dispensed into inserts, and the amount of TC fluorescence emitting from the underside of insert membranes after 20 h (B–C) or 28 h (E) reflects the efficiency of trans-endothelial TC migration. Representative fluorescent images (10×) of membrane undersides are shown in (C), where DAPI-stained nuclei of ECs/TCs are shown in blue, ‘extravasated’ CMTPX-labeled TCs are shown in red, and the # of CMTPX^+ pixels are shown numerically in red. Means ± SEM are shown (A,B,D,E). Three experiments (twice with HMVEC-LBl and once with HMVEC-DBl) were run with n = 3–5 inserts (independent biological replicates) per group and analyzed by two-sampled unpaired t-tests. […]
Endothelial cells (ECs) were grown on cell culture inserts with uncoated 8-μm-pore PET filter membranes to 100% confluency. […] After 30 min of thrombin stimulation or 4–6 h of TC-CM stimulation, FITC fluorescence (ex/em = 490/520 nm) was measured from a 50 μl sample of the lower chamber media. […] CMPTX fluorescence from migrated TCs was then quantified from 10× microscopy images using a MATLAB (MathWorks, Natick, MA, USA) script; five images (technical replicates) were analyzed per insert. […]

CHHHRHSF [T7c, non-PEGylated CHHHRHSF peptides, reference compound]
binding to Tie2-Fc [1]: no binding to Tie2-Fc was detectable; also recorded: undetectable binding | trans-endothelial permeability, structural components of VT [2]: partial effects
